In patent US11524948B2, “Prodrugs of alpha-ketoglutarate, alpha-ketobutyrate, alpha-ketoisovalerate, and alpha-ketoisohexanoate, and uses thereof” (The Regents of the University of California, priority 2018, dated 2022):
“Also recorded” adds a separate entry of the source.

Experiments:
Caenorhabditis elegans = test: Lifespan of N2 wildtype C. elegans on NGM treatment plates containing compound; type: in vivo; design: mean lifespan: unit not given here; conditions: for % increase (mean lifespan): vs DMSO; for effect on C. elegans lifespan: FIGS. 1A-1C, result in words
Experimental: The anti-aging effects of MJX001-MJX005 were tested in the nematode Caenorhabditis elegans. Worms of the N2 wildtype strain of C. elegans were age-synchronized by performing either a timed egg lay or an egg preparation (mix <100 gravid worms in 70 μl M9 buffer, 25 μl bleach and 5 μl 10 N NaOH). Once the worms reached day 1 of adulthood, they were picked onto NGM treatment plates containing 1.5% dimethyl sulfoxide (DMSO; Sigma D8418), 49.5 μM 5-fluoro-2′-deoxyuridine (FUDR, Sigma F0503), and either […] (Sigma K401) or one of the MJX series test compounds. All plates were adjusted to pH 6.0 (i.e., the same pH as the control plates) if necessary by the addition of NaOH. Once dry, the plates were seeded with OP50 E. coli as the C. elegans food source. […] Worms were moved to new plates every 4 days. All worms were maintained in a single humidified, temperature-controlled incubator at 20° C. Lifespan curves were generated and statistical analyses performed.

AMPK signaling pathway = test: Western blot of AMPK signaling in H9C2 rat cardiomyocytes; type: cell-based; conditions: H9C2 cells; for activation of AMPK signaling pathway (phosphorylation of AMPK targets ACC (S79) and ULK1 (S555)): western blot, FIGS. 2A, 2B; for activation of AMPK, dose-response: FIG. 2D
Experimental: (§1) H9C2 rat cardiomyocyte cells were grown in DMEM media (ATCC #30-2002) supplemented with 10% FBS. Stock solutions of MJX series compounds were prepared in DMSO, while the stock solution of α-ketobutyrate was prepared in dH2O. Cells were seeded in the afternoon at 70-80% confluency and the next morning treated with the indicated concentrations of compounds for the indicated times. Cells were then washed with ice-cold PBS and immediately lysed on ice with RIPA buffer. Lysates were clarified at 18,000 g at 4° C., the supernatants transferred to new tubes, mixed with […] of 5×SDS-PAGE loading buffer, and heated for 10 minutes at 70° C. Lysates were then separated by SDS-PAGE using 4-12% Bis-Tris gels (Life Technologies) and transferred to PVDF membranes (Millipore) for western blotting analysis. All antibodies were purchased from Cell Signaling.

mTORC1 = test: Western blot of mTORC1 signaling in H9C2 rat cardiomyocytes; type: cell-based; conditions: H9C2 cells, western blot, FIGS. 2A, 2B, 2C, 2F
Experimental: as §1

mTORC2 = test: Western blot of mTORC2 signaling in H9C2 rat cardiomyocytes; type: cell-based; conditions: H9C2 cells, FIGS. 2C
Experimental: as §1

mTOR signaling = test: Western blot of mTOR signaling in H9C2 rat cardiomyocytes; type: cell-based; conditions: H9C2 cells; for inhibition of mTOR signaling, dose-response: FIG. 2D
Experimental: as §1

[1] = 1 mM, FIG. 1C experiment, DMSO control 14.8
[2] = 2 mM, FIG. 1C experiment, DMSO control 14.8
[3] = 4 mM, FIG. 1C experiment, DMSO control 14.8
[4] = 15 min to 8 hr, FIGS. 2C, 2E, 2F
[5] = after only 15 minutes treatment, FIG. 2C

Row | SMILES | mean lifespan (Caenorhabditis elegans; [1]) | % increase (mean lifespan) (Caenorhabditis elegans; 1 mM, FIG. 1C experiment) [%] | mean lifespan (Caenorhabditis elegans; [2]) | % increase (mean lifespan) (Caenorhabditis elegans; 2 mM, FIG. 1C experiment) [%] | mean lifespan (Caenorhabditis elegans; [3]) | % increase (mean lifespan) (Caenorhabditis elegans; 4 mM, FIG. 1C experiment) [%] | effect on C. elegans lifespan (Caenorhabditis elegans) | activation of AMPK signaling pathway (phosphorylation of AMPK targets ACC (S79) and ULK1 (S555)) (AMPK signaling pathway; 2F) | mTORC1 signaling (phosphorylation of mTORC1 targets S6K (T389), 4E-BP1 (S65), ULK1 (S757)) (mTORC1) | other results
1 | C/C=C(\OC(C)=O)C(=O)OCC [MJX001] | 12.9 | −12.9 | 11.5 | −22.4 | 11.1 | −24.8 | decreased C. elegans lifespan | activate the AMPK signaling pathway | no significant effect | 
2 | C/C=C1\OC(C)OC1=O (stereo not drawn) [MJX003] | 14.8 | −0.2 | 12.5 | −15.3 | 12.9 | −12.7 | decreased C. elegans lifespan | activate the AMPK signaling pathway | no significant effect | phosphorylation of T172 in AMPK (AMPK signaling pathway; FIG. 2A): Increased phosphorylation
3 | C/C=C1\OC(CC)(C(=O)OCC)OC1=O (stereo not drawn) [MJX005] |  |  |  |  |  |  | dose-dependent increases in lifespan | activate the AMPK pathway | inhibited mTORC1 signaling; also recorded: inhibits both mTORC1 and mTORC2 activity | mean lifespan (Caenorhabditis elegans; 2 mM, FIG. 1B experiment, DMSO control 15.3): 18.2; % increase (mean lifespan) (Caenorhabditis elegans; 2 mM, FIG. 1B experiment): 19.1%; mean lifespan (Caenorhabditis elegans; 4 mM, FIG. 1B experiment, DMSO control 15.3): 19.6; % increase (mean lifespan) (Caenorhabditis elegans; 4 mM, FIG. 1B experiment): 27.7%; activation of AMPK compared with α-ketobutyrate (AMPK signaling pathway): more potent activation of AMPK than α-ketobutyrate; activation of AMPK, dose-response (AMPK signaling pathway; 0.8 mM or lower): no significant effect; activation of AMPK, dose-response (AMPK signaling pathway; 1.6 mM): modest effect; activation of AMPK, dose-response (AMPK signaling pathway; 3.2 mM): strong effect; time course of AMPK activation (AMPK signaling pathway; [4]): greatly diminished by 2 hr and largely absent at 4 hr and 8 hr; activation of AMPK (AMPK signaling pathway; [5]): strong activation of AMPK; time course of inhibition of mTORC2 (decreased phosphorylation of Akt (S473)) (mTORC2; 2E): strongest after just 15 and 30 minutes treatment, but recovered to normal levels by 2 hr and beyond; mTORC2 activity (phosphorylation of Akt (S473)) (mTORC2; 2F): inhibits both mTORC1 and mTORC2 activity; inhibition of mTOR signaling, dose-response (mTOR signaling; 0.8 mM or lower): no significant effect; inhibition of mTOR signaling, dose-response (mTOR signaling; 1.6 mM): modest effect; inhibition of mTOR signaling, dose-response (mTOR signaling; 3.2 mM): strong effect; time course of inhibition of mTOR signaling (mTOR signaling; [4]): greatly diminished by 2 hr and largely absent at 4 hr and 8 hr; also recorded: only inhibited mTOR signaling transiently; inhibition of mTOR signaling (mTOR signaling; [5]): inhibition of mTOR signaling
